Some test systems named below: UO-31 renal; SNB-75 CNS; U251 CNS; HCT-15 colon; RPMI-8226 leukemia; SN12C renal; SK-OV-3 ovarian; EKVX NSCLC; COLO 205 colon; OVCAR-8 ovarian.
Common to all, as to assay: NCI anticancer screen, dose series, 48 h

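Following 48 hours of exposure in 96-well plates, responses at five concentrations were used to interpolate endpoints linearly. At the GI50, growth is halved. The concentration for full growth arrest is given as TGI.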

In the case of `COC(=O)c1cccc2cccc(C(=O)Nc3ccc(C)cc3C)c12`, the TGI in the assay with UO-31 renal, in the assay on SNB-75 CNS, in the assay on U251 CNS, with HCT-15 colon, with RPMI-8226 leukemia and with SN12C renal was > 100 µM each time. The TGI in the assay with SK-OV-3 ovarian, with EKVX NSCLC, in the assay with COLO 205 colon and in the assay with OVCAR-8 ovarian was > 100 µM throughout.

Turning to `Cn1cc(C(=O)c2ccccc2)ccc1=O`, the TGI in the assay with UO-31 renal, with SNB-75 CNS, in the assay with U251 CNS, in the assay on HCT-15 colon, in the assay with RPMI-8226 leukemia and with SN12C renal was > 100 µM throughout. Also, the TGI in the assay on SK-OV-3 ovarian, in the assay on EKVX NSCLC, with COLO 205 colon and in the assay on OVCAR-8 ovarian was > 100 µM throughout.

For `COc1ccc2c(c1)CCC1C3(CCCC21C)OCCO3` (stereo not drawn), the TGI was determined as 31 µM in the assay with UO-31 renal; 60.3 µM in the assay with SNB-75 CNS; 29.4 µM with U251 CNS; 34.2 µM with HCT-15 colon; 61.2 µM in the assay with RPMI-8226 leukemia; 30.5 µM in the assay with SN12C renal. Besides, the TGI was determined as 60.9 µM in the assay on SK-OV-3 ovarian, 82.3 µM in the assay with EKVX NSCLC, 35.4 µM with COLO 205 colon and 50.4 µM in the assay on OVCAR-8 ovarian.

Take `CC1CN1CC(O)C(O)CN1CC1C` (stereo not drawn): the GI50 in the assay with UO-31 renal is 0.932 µM; with SNB-75 CNS, 4.08 µM; in the assay with U251 CNS, 1.36 µM; with HCT-15 colon it was 4 µM; in the assay on RPMI-8226 leukemia, 8.86 µM; in the assay with SN12C renal, 0.692 µM. For the same molecule, the GI50 with SK-OV-3 ovarian is 6.11 µM; in the assay on EKVX NSCLC, 13.8 µM; in the assay with COLO 205 colon, 5.45 µM; with OVCAR-8 ovarian it was 1.13 µM. Also, the TGI with UO-31 renal is 10.9 µM; in the assay on SNB-75 CNS, > 63 µM; in the assay on U251 CNS, > 64.8 µM; with HCT-15 colon, 46 µM; in the assay on RPMI-8226 leukemia, > 88.6 µM; with SN12C renal, > 67.8 µM. Moreover, the TGI was > 100 µM with SK-OV-3 ovarian, > 80.6 µM with EKVX NSCLC, > 38.5 µM with COLO 205 colon and > 71.2 µM with OVCAR-8 ovarian.

Take `CC(C)N(C(=O)C12CC3CC(CC(C3)C1)C2)C(C)C`: the TGI with UO-31 renal, in the assay on SNB-75 CNS, in the assay on U251 CNS, with HCT-15 colon, with RPMI-8226 leukemia and in the assay with SN12C renal was > 50 µM each time. For the same molecule, the TGI with SK-OV-3 ovarian, with EKVX NSCLC, in the assay with COLO 205 colon and with OVCAR-8 ovarian was > 50 µM throughout.

Turning to `Cc1ccc(N(C(=O)CC(=O)NN)C(=O)c2ccccc2Cl)cc1`, the TGI with UO-31 renal, with SNB-75 CNS, in the assay on U251 CNS, with HCT-15 colon, with RPMI-8226 leukemia and in the assay with SN12C renal was > 100 µM throughout. Moreover, the TGI in the assay on SK-OV-3 ovarian, with EKVX NSCLC, in the assay on COLO 205 colon and in the assay with OVCAR-8 ovarian was > 100 µM in each case.

For the molecule `COc1ccc2c(c1)C=C([N+](=O)[O-])C(C1OC(C)(C)OC1C1COC(C)(C)O1)O2` (stereo not drawn), the TGI turned out to be 26.3 µM in the assay on UO-31 renal; 28.2 µM with SNB-75 CNS; 9.83 µM in the assay with U251 CNS; 5.2 µM with HCT-15 colon; 4.54 µM in the assay with RPMI-8226 leukemia; 19.7 µM in the assay on SN12C renal. Also, the TGI with SK-OV-3 ovarian came out at 24.2 µM; in the assay on EKVX NSCLC, 21.2 µM; in the assay with COLO 205 colon, 30 µM; with OVCAR-8 ovarian, 11.4 µM.

As for `CN(C)c1ccc(N)cc1`, the GI50 with UO-31 renal was 3.97 µM; in the assay with SNB-75 CNS it was 3.79 µM; in the assay on U251 CNS, 3.36 µM; in the assay on HCT-15 colon, 6.66 µM; in the assay with RPMI-8226 leukemia, 2.71 µM; in the assay with SN12C renal it was 4.35 µM. Further, the GI50 is 13.1 µM in the assay with SK-OV-3 ovarian, 3.32 µM with EKVX NSCLC, 1.97 µM with COLO 205 colon and 3.24 µM in the assay with OVCAR-8 ovarian. Moreover, the TGI is 16.3 µM in the assay on UO-31 renal; 17.3 µM in the assay on SNB-75 CNS; 13.2 µM in the assay with U251 CNS; 38.5 µM in the assay on HCT-15 colon; 9.1 µM in the assay on RPMI-8226 leukemia; 33.9 µM in the assay with SN12C renal. Besides, the TGI was 58 µM in the assay with SK-OV-3 ovarian, 26.4 µM in the assay on EKVX NSCLC, 4.54 µM with COLO 205 colon and 19.7 µM in the assay on OVCAR-8 ovarian.

Regarding `Cc1ccccc1N(CCC#N)C1=NN(C(=O)CC(=O)Nc2ccccc2)C(c2ccccc2)C1` (stereo not drawn), the TGI with UO-31 renal is > 100 µM; in the assay on SNB-75 CNS, 96.7 µM; in the assay on U251 CNS, > 100 µM; with HCT-15 colon it was > 100 µM; in the assay on RPMI-8226 leukemia, > 100 µM; in the assay with SN12C renal it was > 100 µM. The TGI with SK-OV-3 ovarian, with EKVX NSCLC, with COLO 205 colon and in the assay on OVCAR-8 ovarian was > 100 µM throughout.

Consider `COc1cc(OC)c(/C=C/C(=O)c2c(OC)cccc2OC)c(OC)c1`, for which the GI50 was 0.899 µM in the assay on UO-31 renal; 0.339 µM in the assay with SNB-75 CNS; 0.592 µM with U251 CNS; 0.482 µM with HCT-15 colon; 0.666 µM in the assay on RPMI-8226 leukemia; 1.1 µM in the assay on SN12C renal. In addition, the GI50 is 0.79 µM with SK-OV-3 ovarian, 4.03 µM in the assay with EKVX NSCLC, 0.619 µM in the assay on COLO 205 colon and 1.43 µM in the assay with OVCAR-8 ovarian. For the same molecule, the TGI in the assay with UO-31 renal, with U251 CNS, in the assay on HCT-15 colon, in the assay on RPMI-8226 leukemia, in the assay on SN12C renal and with SK-OV-3 ovarian was > 100 µM each time. In addition, the TGI in the assay with EKVX NSCLC and in the assay on OVCAR-8 ovarian was > 100 µM each time.

Consider `O=C(O)CN(c1ccccc1)S(=O)(=O)c1ccccc1[N+](=O)[O-]`, for which the TGI with UO-31 renal, in the assay with SNB-75 CNS, with U251 CNS, with HCT-15 colon, in the assay with RPMI-8226 leukemia and in the assay with SN12C renal was > 100 µM each time. Further, the TGI in the assay on SK-OV-3 ovarian, with EKVX NSCLC, with COLO 205 colon and in the assay on OVCAR-8 ovarian was > 100 µM throughout.
